Results: ChEMBL document CHEMBL1201862, “PubChem BioAssay data set” (2004)
Active and inactive are the calls of the source.

How the values were obtained:
[1] = biological target: T1, Sentrin-specific protease 1 (Homo sapiens, UniProt Q9P0U3); assay: Dose response confirmation of small molecule inhibitors of the catalytic domain of the SUMO protease, SENP1 in a FRET assay.; format: functional; settings: read-out: IC50_Mean
[2] = cells; format: functional
[3] = biological target: T1, Sentrin-specific protease 1; assay: SENP1 catalytic domain blockers, concentration series – biochemical, kinetic FRET, dose response (AID 651697); format: functional; settings: read-out: IC50_Mean
[4] = THP-1 cell cytotoxicity, dose response, cytotoxicity control for non-replicating M. tuberculosis project (AID 489025); format: functional
[5] = biological target: Beta-lactamase (Salmonella choleraesuis (strain SC-B67), UniProt Q5J463)
Beta-lactamase (Salmonella choleraesuis (strain SC-B67), UniProt Q5J463), sequence (Q5J463 whole entry): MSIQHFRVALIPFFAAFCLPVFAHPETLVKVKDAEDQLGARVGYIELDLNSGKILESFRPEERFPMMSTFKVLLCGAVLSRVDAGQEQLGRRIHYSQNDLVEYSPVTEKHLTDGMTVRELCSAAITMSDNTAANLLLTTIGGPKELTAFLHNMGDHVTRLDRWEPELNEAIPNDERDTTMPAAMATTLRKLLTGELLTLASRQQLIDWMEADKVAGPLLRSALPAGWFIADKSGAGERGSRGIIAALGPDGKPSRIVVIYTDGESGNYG

[6] = biological target: Beta-lactamase (Pseudomonas aeruginosa, UniProt Q79MP6);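 also: biochemical dose-response test of metallo-beta-lactamase enzyme inhibition, read out by epi-absorbance; purified recombinant IMP-1 metallo-beta-lactamase with nitrocefin as substrate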
Beta-lactamase (Pseudomonas aeruginosa, UniProt Q79MP6), sequence (Q79MP6 whole entry): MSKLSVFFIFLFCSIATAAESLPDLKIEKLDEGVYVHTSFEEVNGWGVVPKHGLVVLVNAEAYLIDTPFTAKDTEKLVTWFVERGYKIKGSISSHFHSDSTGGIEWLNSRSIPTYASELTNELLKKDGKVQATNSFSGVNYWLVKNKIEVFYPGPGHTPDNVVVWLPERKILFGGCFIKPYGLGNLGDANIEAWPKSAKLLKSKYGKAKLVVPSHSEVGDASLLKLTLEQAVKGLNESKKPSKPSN

[7] = Luminescence-based cell-based high throughput dose response assay to identify activators of the DAF-12 from the parasite S. stercoralis (ssDAF-12).; format: functional
[8] = biological target: Protein S100-A4 (Homo sapiens, UniProt P26447); assay: human S100A4 peptide interaction inhibition curves – biochemical, fluorescence polarization, cherry-picked hits, dose response (AID 687001); format: functional
Protein S100-A4, sequence (P26447 whole entry): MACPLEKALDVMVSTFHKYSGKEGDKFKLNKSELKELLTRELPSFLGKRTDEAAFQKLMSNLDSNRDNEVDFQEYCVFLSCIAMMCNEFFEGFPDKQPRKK

[9] = biological target: T2, Cytochrome P450 1A2 (Homo sapiens, UniProt P05177);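 also: PubChem cytochrome P450 panel assay, CYP1A2 panel member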
T2 sequence (P05177 whole entry): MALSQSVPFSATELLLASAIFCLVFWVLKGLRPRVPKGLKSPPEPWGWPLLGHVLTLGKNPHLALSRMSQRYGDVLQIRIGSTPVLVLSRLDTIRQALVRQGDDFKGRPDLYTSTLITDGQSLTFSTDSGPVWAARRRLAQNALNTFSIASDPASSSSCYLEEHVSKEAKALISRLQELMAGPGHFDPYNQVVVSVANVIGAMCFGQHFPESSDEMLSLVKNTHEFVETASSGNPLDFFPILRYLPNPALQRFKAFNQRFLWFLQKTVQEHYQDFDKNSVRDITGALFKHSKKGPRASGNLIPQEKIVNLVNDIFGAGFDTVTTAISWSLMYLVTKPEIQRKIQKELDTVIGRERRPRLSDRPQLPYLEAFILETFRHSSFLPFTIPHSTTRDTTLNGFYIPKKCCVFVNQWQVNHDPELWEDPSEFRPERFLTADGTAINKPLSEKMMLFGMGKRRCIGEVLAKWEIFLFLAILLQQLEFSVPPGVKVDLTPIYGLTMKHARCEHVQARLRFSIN

[10] = biological target: Paired box protein Pax-8 (Homo sapiens, UniProt Q06710); assay: PAX8 transcriptional activity inhibition in RMG-I – RMG-I cells, luciferase, cherry-pick, dose response (AID 687027); format: functional, cell-based;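 also: luciferase reporter driven by Pax8 target thyroperoxidase promoter measured by SteadyGlo luminescence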
Paired box protein Pax-8, sequence (Q06710 whole entry): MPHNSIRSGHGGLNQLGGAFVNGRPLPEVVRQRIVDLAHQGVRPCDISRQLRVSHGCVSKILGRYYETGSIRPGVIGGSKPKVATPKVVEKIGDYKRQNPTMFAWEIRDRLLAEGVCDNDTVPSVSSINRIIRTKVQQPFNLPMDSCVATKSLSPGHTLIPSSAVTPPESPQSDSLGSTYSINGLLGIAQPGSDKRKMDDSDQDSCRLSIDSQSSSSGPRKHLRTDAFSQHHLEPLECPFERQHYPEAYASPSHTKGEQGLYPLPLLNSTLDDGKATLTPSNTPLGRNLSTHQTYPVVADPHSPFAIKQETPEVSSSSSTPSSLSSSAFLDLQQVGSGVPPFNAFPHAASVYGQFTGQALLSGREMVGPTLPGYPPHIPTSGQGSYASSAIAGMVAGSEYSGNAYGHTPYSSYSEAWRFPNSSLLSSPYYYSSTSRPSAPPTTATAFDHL

[11] = A549 cell cytotoxicity, dose response, cytotoxicity control, plate reader, cherry-pick, antagonist series (AID 743412); format: functional, cell-based
[12] = blockade of melanocortin 4 receptor signaling – cell-based, plate reader, cherry pick, counter-screen for LGR2 antagonist project, dose response (AID 743444); format: functional;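 also: transfected HEK 293 cells stimulated with alpha-MSH peptide; potency of inhibitors of the alpha-MSH evoked signal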
[13] = inhibition of bursicon-driven LGR2 cAMP signaling – cell-based, HEK293, CRE-luciferase reporter, cherry pick, dose response (AID 743342); format: functional
[14] = T. cruzi growth inhibition in host cells, dose response, cell-based, plate reader, dry powder, set 2 (AID 652275); format: functional
[15] = anti-trypanosomal activity in BESM host cells – imaging, CA-I/72 strain, bovine embryo skeletal muscle, dry powder, dose response (AID 651885); format: functional, cell-based
[16] = system: Vero; assay: viability loss in Vero cells – cell-based, plate reader, cherry-pick samples, cytotoxicity control, dose response (AID 687020); format: functional; settings: Chlorocebus sabaeus
[17] = loss of viability in HepG2 cells – cell-based, CellTiter-Glo, cherry-picked, cytotoxicity control for Shn3 inhibitor project, dose response (AID 624134); format: functional
[18] = system: BHK-21; assay: viability loss in BHK-21 cells – cell-based, plate reader, cherry-pick samples, cytotoxicity control, dose response (AID 687030); format: functional; settings: Mesocricetus auratus
[19] = system: A549; assay: viability loss in A549 cells – cell-based, plate reader, cherry-pick samples, cytotoxicity control, dose response (AID 687028); format: functional; settings: Homo sapiens
[20] = non-specific 3'UTR reporter inhibition in Clone20-Shn3RL – cell-based, Renilla luciferase, cherry-picked, counter-screen for Shn3 inhibitor project, dose response (AID 624133); format: functional
[21] = system: INS1; assay: INS-1E survival protection against cytokine death – cell-based, luminescence, retest, dose response (AID 449756); format: functional; settings: Rattus norvegicus;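 also: cell death triggered by IL-1 beta plus TNF-alpha plus IFN-gamma mixture; protective hits raise ATP signal compared with cytokine alone wells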
[22] = reduction of Shn3 3'UTR-driven luciferase in osteoblasts – cell-based, Clone20 osteoblasts, firefly luciferase, cherry-picked, dose response (AID 624132); format: functional;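 also: firefly luciferase luminescence from reporter carrying the Shn3 3'UTR in osteoblasts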

T1 sequence (Q9P0U3 whole entry, the tested form may be a part): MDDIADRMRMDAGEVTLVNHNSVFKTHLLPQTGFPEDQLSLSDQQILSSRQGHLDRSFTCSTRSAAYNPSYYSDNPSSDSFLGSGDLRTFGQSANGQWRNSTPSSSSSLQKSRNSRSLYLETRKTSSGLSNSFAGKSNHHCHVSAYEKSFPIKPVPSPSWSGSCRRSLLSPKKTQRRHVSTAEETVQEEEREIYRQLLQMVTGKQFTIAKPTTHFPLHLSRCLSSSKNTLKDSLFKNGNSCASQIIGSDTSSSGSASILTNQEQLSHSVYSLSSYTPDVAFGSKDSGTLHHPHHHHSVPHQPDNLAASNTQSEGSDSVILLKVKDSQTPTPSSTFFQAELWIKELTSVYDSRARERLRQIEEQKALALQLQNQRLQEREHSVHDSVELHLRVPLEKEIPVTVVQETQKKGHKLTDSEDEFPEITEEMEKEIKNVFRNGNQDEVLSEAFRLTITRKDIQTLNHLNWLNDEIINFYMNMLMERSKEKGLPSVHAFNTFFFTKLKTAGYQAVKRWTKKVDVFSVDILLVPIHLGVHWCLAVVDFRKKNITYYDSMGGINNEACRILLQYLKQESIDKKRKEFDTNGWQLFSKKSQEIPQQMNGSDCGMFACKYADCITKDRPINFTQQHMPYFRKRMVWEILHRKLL

Question: With `O=C(Nc1nccs1)c1cc2cc(Cl)ccc2oc1=O` as the molecule, how does the IC50 [1] read?
Answer: Its IC50 is 3.49 µM (active).

Question: And the IC50 [2]?
Answer: Its IC50 is 1.37 µM (active).

Question: What about the IC50 [3] of the same molecule?
Answer: Its IC50 is 1.84 µM (active).

Question: What does the source list for `N=C1/C(=C\c2coc3ccccc3c2=O)C(=O)N=C2SC=CN12`?
Answer: CC50 [4]: > 40 µM (active); IC50 [5]: > 59.6 µM (inactive); IC50 [6]: 36.4 µM (inactive)

Question: Which results are given for `CC(=O)[C@@]1(O)Cc2c(O)c3c(c(O)c2[C@H](O[C@H]2C[C@H](N)[C@H](O)[C@H](C)O2)C1)C(=O)c1ccccc1C3=O`?
Answer: IC50 [7]: > 67.5 µM (inactive); AC50 [8]: 0.412 µM (active); AC50 [9]: 20 µM (inconclusive); AC50 [10]: 3.77 µM (active)

Question: With `C[C@H](CO)N1C[C@H](C)[C@H](CN(C)C(=O)Nc2ccccc2)OCCCC[C@H](C)Oc2ccc(NC(=O)Nc3ccc4c(c3)OCO4)cc2C1=O` as the molecule, how does the AC50 [11] read?
Answer: The AC50 was > 52 µM (inactive).

Question: And the AC50 [12]?
Answer: The AC50 was 25.4 µM (active).

Question: And the AC50 [13]?
Answer: Its AC50 is 36.6 µM (active).

Question: What does the source list for `C[C@@H]1CN([C@@H](C)CO)C(=O)c2cc(-c3cncnc3)cnc2O[C@H]1CN(C)Cc1ccc(Oc2ccccc2)cc1`?
Answer: AC50 [14]: 0.403 µM (active); IC50 [15]: > 20 µM (inactive)

Question: For `COc1cc(C)ccc1OCc1cc(C(=O)NCCN2CCCC(O)C2)no1` (configuration not stated), which AC50 [16] is on record?
Answer: Its AC50 is 30 µM (active).

Question: For `CC(=O)NC(c1cc(Cl)c2cccnc2c1O)C(C)C` (configuration not stated), which AC50 [17] is on record?
Answer: Its AC50 is 5.13 µM (active).

Question: What about the AC50 [18] of the same molecule?
Answer: Its AC50 is 21.6 µM (active).

Question: And the AC50 [19]?
Answer: The AC50 was 23.5 µM (active).

Question: What about the AC50 [20] of the same molecule?
Answer: Its AC50 is 2.71 µM (active).

Question: What about the AC50 [21] of the same molecule?
Answer: Its AC50 is 1.76 µM (active).

Question: And the AC50 [22]?
Answer: Its AC50 is 2.96 µM (active).
